According to patent publication US9271993B2, “Treatment of bacterial infectious diseases” (priority 2010, dated 2016):
≈ marks a conversion by molar mass, not a printed value. Read-outs that look alike come from different tables or passages of the source.

Tests used:
E. coli = assay: MIC against gram-negative bacteria; format: cell-based; conditions: Escherichia coli, read-out: MIC
Text: Agents Chemother. 2003, 47:1496-1502.

M. abscessus = assay: MIC against non-tuberculous rapidly-growing mycobacteria, microdilution; format: cell-based; conditions: Mycobacteroides abscessus; strain 500039/08 M. abscessus; read-out: minimal inhibitory concentration (MIC)
Protocol: (§1) Activity of apramycin was assessed in standard microdilution assays and is expressed as minimal inhibitory concentration (MIC) in μg/ml.

M. bolletii = assay: as above; format: cell-based; conditions: Mycobacteroides abscessus, read-out: minimal inhibitory concentration (MIC)
Protocol: as §1

M. massiliense = assay: as above; format: cell-based; conditions: Mycobacteroides abscessus, read-out: minimal inhibitory concentration (MIC)
Protocol: as §1

[1] = test system: clinical methicillin resistant Staphylococcus aureus (MRSA) isolates; assay: MIC against clinical MRSA isolates, LB microdilution assay
Protocol: Activity was assessed by determination of minimal inhibitory concentrations (MIC), as described in Pfister et al., Antimicrob. […] Cultures from single colonies were grown in LB medium and used for MIC tests in a microtiter plate format. Starting cultures contained 200 μl of bacterial cells at an optical density of 0.025 at 600 nm, and the respective drug was added in twofold series of dilution.

M. avium-intracellulare = assay: Drug susceptibility of non-tuberculous slow-growing mycobacteria, MGIT960; format: cell-based
M. kansasii = assay: as above; format: cell-based
bacterial ribosomes = assay: Ribosomal drug susceptibility (MIC) of recombinant bacteria; design: MIC, bacterial ribosomes: unit not given beside the values; conditions: Table 7; 72 h incubation
mitohybrid ribosomes = assay: as above; design: MIC, mitohybrid ribosomes: unit not given beside the values; conditions: Table 7; 72 h incubation
cytohybrid ribosomes = assay: as above; design: MIC, cytohybrid ribosomes: unit not given beside the values; conditions: Table 7; 72 h incubation
[2] = E. coli AG01, clin. isol. (Gm^S)
[3] = E. coli AG02, clin. isol (Gm^S)
[4] = E. coli AG03, clin. isol (Gm^R)
[5] = E. coli AG07, BM13/pIP135, resistance mechanism AAC(3)
[6] = E. coli AG08, BM13/pIP055, resistance mechanism ANT(2″)
[7] = E. coli AG09, AAC(6′)-1B, resistance mechanism AAC(6′)
[8] = E. coli AG36, HB101/pAT197, resistance mechanism ANT(4′)
[9] = E. coli AG37, HB101/pAG21-1, resistance mechanism APH(3′)
[10] = strain 177217/10 M. massiliense
[11] = strain 186139/07 M. massiliense
[12] = strain 500044/09 M. massiliense
[13] = Staphylococcus aureus, MRSA, MRSA AG038, strain 70-26S Gm^S
[14] = Staphylococcus aureus, MRSA, MRSA AG040, strain 87-26S Gm^S
[15] = Staphylococcus aureus, MRSA, MRSA AG041, strain 98-25S Gm^S
[16] = Staphylococcus aureus, MRSA, MRSA AG042, strain 101-06R Gm^R
[17] = Staphylococcus aureus, MRSA, MRSA AG043, strain 01-08R Gm^R
[18] = Staphylococcus aureus, MRSA, MRSA AG044, strain 07-12R Gm^R
[19] = Staphylococcus aureus, MRSA, MRSA AG045, strain 08-12R Gm^R
[20] = Staphylococcus aureus, MRSA, MRSA AG048, strain 20-06R Gm^R
[21] = Staphylococcus aureus, MRSA, MRSA AG053, strain 56-06R Gm^R
[22] = Staphylococcus aureus, MRSA, MRSA AG049, strain 23-12R Gm^R
[23] = Staphylococcus aureus, MRSA, MRSA AG050, strain 31-06R Gm^R
[24] = Staphylococcus aureus, MRSA, MRSA AG051, strain 36-06R Gm^R
[25] = Staphylococcus aureus, MRSA, MRSA AG052, strain 53-14I Gm^R

NC[C@H]1O[C@H](O[C@H]2[C@H](O)[C@@H](O[C@H]3O[C@H](CO)[C@@H](O)[C@H](N)[C@H]3O)[C@H](N)C[C@@H]2N)[C@H](O)[C@@H](O)[C@@H]1O [Kanamicin A]
MIC (E. coli; [2]): 16 µg/mL (≈ 33 µM)
MIC (E. coli; [3]): 4 to 8 µg/mL (≈ 8.26 to 16.5 µM)
MIC (E. coli; [4]): 16 to 32 µg/mL (≈ 33 to 66 µM)
MIC (E. coli; E. coli AG06, BM13): 1 to 2 µg/mL (≈ 2.06 to 4.13 µM)
MIC (E. coli; [5]): 8 µg/mL (≈ 16.5 µM)
MIC (E. coli; [6]): 16 to 128 µg/mL (≈ 33 to 264 µM)
MIC (E. coli; [7]): 256 to 512 µg/mL (≈ 528 to 1060 µM)
MIC (E. coli; [8]): 16 to 32 µg/mL (≈ 33 to 66 µM)
MIC (E. coli; [9]): > 256 µg/mL
MIC (M. abscessus): 4 µg/mL (≈ 8.26 µM)
MIC (M. bolletii; strain 179639/10 M. bolletii): 64 µg/mL (≈ 132 µM)
MIC (M. bolletii; strain 181739/08 M. bolletii): 64 µg/mL (≈ 132 µM)
MIC (M. bolletii; strain 183177/08 M. bolletii): 16 µg/mL (≈ 33 µM)
MIC (M. massiliense; [10]): 32 µg/mL (≈ 66 µM)
MIC (M. massiliense; [11]): 32 µg/mL (≈ 66 µM)
MIC (M. massiliense; [12]): 16 µg/mL (≈ 33 µM)
MIC ([1]; MRSA AG047, strain 18-06R Gm^R): >256 µg/mL
MIC ([1]; MRSA AG049, strain 23-12R Gm^R): >256 µg/mL
MIC ([1]; MRSA AG050, strain 31-06R Gm^R): >256 µg/mL
MIC ([1]; MRSA AG051, strain 36-06R Gm^R): >256 µg/mL
MIC ([1]; MRSA AG052, strain 53-14I Gm^R): >256 µg/mL
MIC ([1]; Staphylococcus aureus, MRSA): > 256 µg/mL
MIC [1, 13]: 4 µg/mL (≈ 8.26 µM)
MIC [1, 14]: 128 to 256 µg/mL (≈ 264 to 528 µM)
MIC [1, 15]: 2 to 4 µg/mL (≈ 4.13 to 8.26 µM)
MIC [1, 16]: 256 µg/mL (≈ 528 µM)
MIC [1, 17]: 128 to 256 µg/mL (≈ 264 to 528 µM)
MIC [1, 18]: 64 µg/mL (≈ 132 µM)
MIC [1, 19]: 64 µg/mL (≈ 132 µM)
MIC [1, 20]: > 512 µg/mL
MIC [1, 21]: 256 µg/mL (≈ 528 µM)

NCC[C@H](O)C(=O)N[C@@H]1C[C@H](N)[C@@H](O[C@H]2O[C@H](CN)[C@@H](O)[C@H](O)[C@H]2O)[C@H](O)[C@H]1O[C@H]1O[C@H](CO)[C@@H](O)[C@H](N)[C@H]1O [Amikacin]
Activity (resistant/susceptible) (M. avium-intracellulare; strain 182034/06 M. avium-intracellulare, 1 μg/ml): R
Activity (resistant/susceptible) (M. avium-intracellulare; strain 182034/06 M. avium-intracellulare, 4 μg/ml): S
Activity (resistant/susceptible) (M. avium-intracellulare; strain 182034/06 M. avium-intracellulare, 10 μg/ml): S
Activity (resistant/susceptible) (M. avium-intracellulare; strain 182124/07 M. avium-intracellulare, 1 μg/ml): R
Activity (resistant/susceptible) (M. avium-intracellulare; strain 182124/07 M. avium-intracellulare, 4 μg/ml): S
Activity (resistant/susceptible) (M. avium-intracellulare; strain 182124/07 M. avium-intracellulare, 10 μg/ml): S
Activity (resistant/susceptible) (M. avium-intracellulare; strain 182550/07 M. avium-intracellulare, 1 μg/ml): R
Activity (resistant/susceptible) (M. avium-intracellulare; strain 182550/07 M. avium-intracellulare, 4 μg/ml): S
Activity (resistant/susceptible) (M. avium-intracellulare; strain 182550/07 M. avium-intracellulare, 10 μg/ml): S
Activity (resistant/susceptible) (M. kansasii; strain 177227/06 M. kansasii, 1 μg/ml): R
Activity (resistant/susceptible) (M. kansasii; strain 177227/06 M. kansasii, 4 μg/ml): S
Activity (resistant/susceptible) (M. kansasii; strain 177227/06 M. kansasii, 10 μg/ml): S
Activity (resistant/susceptible) (M. kansasii; strain 180235/06 M. kansasii, 1 μg/ml): R
Activity (resistant/susceptible) (M. kansasii; strain 180235/06 M. kansasii, 4 μg/ml): S
Activity (resistant/susceptible) (M. kansasii; strain 180235/06 M. kansasii, 10 μg/ml): S
MIC (M. abscessus): 1 µg/mL (≈ 1.71 µM)
MIC (M. bolletii; strain 179639/10 M. bolletii): 8 µg/mL (≈ 13.7 µM)
MIC (M. bolletii; strain 181739/08 M. bolletii): 4 µg/mL (≈ 6.83 µM)
MIC (M. bolletii; strain 183177/08 M. bolletii): 8 µg/mL (≈ 13.7 µM)
MIC (M. massiliense; [10]): 8 µg/mL (≈ 13.7 µM)
MIC (M. massiliense; [11]): 4 µg/mL (≈ 6.83 µM)
MIC (M. massiliense; [12]): 1 µg/mL (≈ 1.71 µM)
MIC ([1]; MRSA AG048, strain 20-06R Gm^R): 256 µg/mL (≈ 437 µM)
MIC ([1]; Staphylococcus aureus, MRSA): 256 µg/mL (≈ 437 µM)
MIC [1, 13]: 4 µg/mL (≈ 6.83 µM)
MIC [1, 14]: 16 to 32 µg/mL (≈ 27.3 to 54.6 µM)
MIC [1, 15]: 4 to 8 µg/mL (≈ 6.83 to 13.7 µM)
MIC [1, 16]: 16 µg/mL (≈ 27.3 µM)
MIC [1, 17]: 8 to 16 µg/mL (≈ 13.7 to 27.3 µM)
MIC [1, 18]: 4 µg/mL (≈ 6.83 µM)
MIC [1, 19]: 4 µg/mL (≈ 6.83 µM)
MIC ([1]; Staphylococcus aureus, MRSA, MRSA AG046, strain 12-06R Gm^R): 32 µg/mL (≈ 54.6 µM)
MIC [1, 22]: 8 to 16 µg/mL (≈ 13.7 to 27.3 µM)
MIC [1, 23]: 16 µg/mL (≈ 27.3 µM)
MIC [1, 24]: 8 to 16 µg/mL (≈ 13.7 to 27.3 µM)
MIC [1, 25]: 16 µg/mL (≈ 27.3 µM)
MIC [1, 21]: 8 µg/mL (≈ 13.7 µM)

NC[C@H]1O[C@H](O[C@H]2[C@H](O)[C@@H](O[C@H]3O[C@H](CO)[C@@H](O)[C@H](N)[C@H]3O)[C@H](N)C[C@@H]2N)[C@H](N)C[C@@H]1O [Tobramycin]
MIC (E. coli; [2]): 4 to 8 µg/mL (≈ 8.56 to 17.1 µM)
MIC (E. coli; [3]): 2 µg/mL (≈ 4.28 µM)
MIC (E. coli; [4]): 32 µg/mL (≈ 68.4 µM)
MIC (E. coli; E. coli AG06, BM13): 0.5 µg/mL (≈ 1.07 µM)
MIC (E. coli; [5]): 4 µg/mL (≈ 8.56 µM)
MIC (E. coli; [6]): 8 to 64 µg/mL (≈ 17.1 to 137 µM)
MIC (E. coli; [7]): 64 to 128 µg/mL (≈ 137 to 274 µM)
MIC (E. coli; [8]): 16 to 32 µg/mL (≈ 34.2 to 68.4 µM)
MIC (E. coli; [9]): 1 to 2 µg/mL (≈ 2.14 to 4.28 µM)
MIC (M. abscessus): 4 µg/mL (≈ 8.56 µM)
MIC (M. bolletii; strain 179639/10 M. bolletii): 32 µg/mL (≈ 68.4 µM)
MIC (M. bolletii; strain 181739/08 M. bolletii): 32 µg/mL (≈ 68.4 µM)
MIC (M. bolletii; strain 183177/08 M. bolletii): 16 µg/mL (≈ 34.2 µM)
MIC (M. massiliense; [10]): 32 µg/mL (≈ 68.4 µM)
MIC (M. massiliense; [11]): 16 µg/mL (≈ 34.2 µM)
MIC (M. massiliense; [12]): 8 µg/mL (≈ 17.1 µM)
MIC ([1]; Staphylococcus aureus, MRSA): 128 to 256 µg/mL (≈ 274 to 548 µM)
MIC [1, 13]: 0.5 to 1 µg/mL (≈ 1.07 to 2.14 µM)
MIC [1, 14]: ≥ 256 µg/mL
MIC [1, 15]: 0.5 to 1 µg/mL (≈ 1.07 to 2.14 µM)
MIC [1, 16]: ≥ 256 µg/mL
MIC [1, 17]: 32 µg/mL (≈ 68.4 µM)
MIC [1, 18]: 8 µg/mL (≈ 17.1 µM)
MIC [1, 19]: 8 µg/mL (≈ 17.1 µM)
MIC ([1]; Staphylococcus aureus, MRSA, MRSA AG047, strain 18-06R Gm^R): ≥ 256 µg/mL
MIC [1, 20]: ≥ 256 µg/mL
MIC [1, 22]: 8 to 16 µg/mL (≈ 17.1 to 34.2 µM)
MIC [1, 23]: 32 to 64 µg/mL (≈ 68.4 to 137 µM)
MIC [1, 24]: 32 to 64 µg/mL (≈ 68.4 to 137 µM)
MIC [1, 25]: 8 to 16 µg/mL (≈ 17.1 to 34.2 µM)
MIC [1, 21]: 16 to 32 µg/mL (≈ 34.2 to 68.4 µM)
MIC, bacterial ribosomes (bacterial ribosomes): 1
MIC, mitohybrid ribosomes (mitohybrid ribosomes): 128
MIC, cytohybrid ribosomes (cytohybrid ribosomes): 512
